Values quoted from earlier work in article PMC9576820 (The Journal of membrane biology, 2022).

Tested on: host cells, proteases, serum proteins

For RRGWALRLVLAY [ARVA], the “inhibition of antimicrobial activity by host factors” value is listed as “potently inhibited by host cell binding, proteolysis, and serum protein binding”.
